{"source": "paper PMC8534114", "about": "“Molecular Basis of a Dominant SARS-CoV-2 Spike-Derived Epitope Presented by HLA-A*02:01 Recognised by a Public TCR” (Cells, 2021)", "key": {"CD8+ T cells [1]": {"tested_on": "CD8+ T cells", "format": "cell-based, human"}, "CD8+ T cells [2]": {"tested_on": "CD8+ T cells", "details": "cited from earlier work"}}}
{"sequence": "YLQPRTFLL", "values": [{"measurement": "CD8+ T cell response, overall", "setting": "CD8+ T cells [1]", "value": "all able to generate a polyfunctional CD8+ T cell response"}, {"measurement": "CD8+ T cell response (in words)", "setting": "CD8+ T cells [2]", "value": "strong CD8+ T cell response"}, {"measurement": "CD8+ T cell stimulation (in words)", "setting": "CD8+ T cells [2]", "value": "strongly stimulate CD8+ T cells"}]}
